Results on 1 compound are retold here after PMC6212544, “Identification and Characterization of Novel CFTR Potentiators” (Frontiers in Pharmacology, 2018).

In the experiment the target is WT CFTR (Homo sapiens, UniProt P13569). Description: Patch clamp, inside-out patches of CHO cells expressing WT CFTR. It is filed as cell-based. Also noted: expressed in transfected cells; host or cells: CHO cells, transient, pcDNA plasmid. The conditions noted are these: 3 μM GLPG1837, PKA and 2 mM ATP. As for the experimental part: A more complete description of the patch-clamp methodology can be found in a recent publication ([Lin et al., 2016]). Briefly, CHO (Chinese Hamster Ovary) cells were transiently transfected with pcDNA plasmids containing various CFTR constructs and pEGFP-C3. After transfection, cells were trypsinized and plated onto 35 mm tissue culture dishes dispersed with sterilized glass chips. Electrophysiological experiments were performed 3–7 days following transfection.
Sequence of WT CFTR (P13569 whole entry): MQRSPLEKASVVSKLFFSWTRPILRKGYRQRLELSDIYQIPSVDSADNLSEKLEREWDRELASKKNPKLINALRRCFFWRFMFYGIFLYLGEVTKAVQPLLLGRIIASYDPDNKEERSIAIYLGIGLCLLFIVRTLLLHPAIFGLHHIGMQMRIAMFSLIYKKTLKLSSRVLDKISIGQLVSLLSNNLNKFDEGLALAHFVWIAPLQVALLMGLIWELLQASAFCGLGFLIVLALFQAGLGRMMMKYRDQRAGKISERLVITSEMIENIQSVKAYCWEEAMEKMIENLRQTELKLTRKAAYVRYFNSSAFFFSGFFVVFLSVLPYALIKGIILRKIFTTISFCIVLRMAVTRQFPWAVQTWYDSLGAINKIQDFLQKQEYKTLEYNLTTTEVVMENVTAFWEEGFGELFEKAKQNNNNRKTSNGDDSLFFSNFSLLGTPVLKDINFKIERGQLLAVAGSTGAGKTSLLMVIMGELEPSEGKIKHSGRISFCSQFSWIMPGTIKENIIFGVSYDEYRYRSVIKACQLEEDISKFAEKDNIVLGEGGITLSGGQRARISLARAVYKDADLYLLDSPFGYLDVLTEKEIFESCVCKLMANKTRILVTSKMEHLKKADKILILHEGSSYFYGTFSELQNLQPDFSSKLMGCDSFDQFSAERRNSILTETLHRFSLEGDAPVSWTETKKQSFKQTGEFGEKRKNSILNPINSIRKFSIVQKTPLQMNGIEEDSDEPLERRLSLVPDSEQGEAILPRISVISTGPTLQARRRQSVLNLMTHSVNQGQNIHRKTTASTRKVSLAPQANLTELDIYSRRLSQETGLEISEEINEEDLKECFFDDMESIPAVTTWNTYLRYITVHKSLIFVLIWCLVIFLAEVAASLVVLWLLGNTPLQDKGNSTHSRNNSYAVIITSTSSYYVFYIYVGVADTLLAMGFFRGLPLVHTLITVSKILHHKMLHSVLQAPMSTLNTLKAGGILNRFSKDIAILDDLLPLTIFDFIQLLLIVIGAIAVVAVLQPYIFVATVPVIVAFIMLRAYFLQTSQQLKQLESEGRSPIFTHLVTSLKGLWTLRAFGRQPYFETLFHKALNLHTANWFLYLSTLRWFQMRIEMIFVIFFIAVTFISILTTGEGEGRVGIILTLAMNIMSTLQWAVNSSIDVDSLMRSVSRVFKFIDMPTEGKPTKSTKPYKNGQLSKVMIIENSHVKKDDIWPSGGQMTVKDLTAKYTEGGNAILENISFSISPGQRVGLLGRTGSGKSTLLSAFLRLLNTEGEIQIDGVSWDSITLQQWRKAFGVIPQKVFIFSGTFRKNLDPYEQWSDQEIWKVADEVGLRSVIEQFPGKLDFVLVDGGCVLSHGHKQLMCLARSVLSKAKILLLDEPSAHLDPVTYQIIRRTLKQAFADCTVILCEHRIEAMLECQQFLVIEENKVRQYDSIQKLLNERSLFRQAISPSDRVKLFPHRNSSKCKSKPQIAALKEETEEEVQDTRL
Patch-clamp experiments were performed at room temperature with an EPC-9 patch clamp amplifier (HEKA Instruments, Holliston, MA, United States). Recording microelectrodes were made from borosilicate capillary glass with a two-stage pipette puller (Narishige, Tokyo, Japan). The pipette tip was polished with a home-made microforge before use. The pipette solution contained (in mM) 140 NMDG (N-methyl-d-glucamine)-Cl (Fisher Biotec), 2 MgCl2 (Fisher Biotec, Perth, Australia), 5 CaCl2 (Fisher Biotec), and 10 HEPES (Fisher Biotec), pH 7.4, with NMDG (see [Lin et al., 2016] for details). The pipette resistance when filled with the regular pipette solution was 3–5 MΩ. Once the tip of the pipette and the cell membrane established GΩ resistance, the electrode was quickly pulled away from the cell to form an inside-out patch, where the cytosolic side of the membrane was exposed to the perfusion solution. Cells were perfused with a bath solution having (in mM) 145 NaCl (Fisher Biotec), 5 KCl (Fisher Biotec), 2 MgCl2, 1 CaCl2, 5 glucose (Fisher Biotec), 5 HEPES, and 20 sucrose (Fisher Biotec), pH 7.4, with NaOH (Fisher Biotec). […]
Microscopic kinetic analysis was performed with a program provided by Dr. László Csanády (Semmelweis University, Budapest, Hungary) ([Csanády, 2000]). Experiments were performed 4-5 times and averages and SEM were calculated. […]
On the technique in general: In patch-clamp work, channel activity is measured electrically.

Structures are written as SMILES.

In the case of `CC1(C)Cc2c(sc(NC(=O)c3ccn[nH]3)c2C(N)=O)C(C)(C)O1` [GLPG1837, N-(3-Carbamoyl-5,5,7,7-tetramethyl-5,7-dihydro-4H-thieno[2,3-c]pyran-2-yl)-lH-pyrazole-5-carboxamide], the “Closed time constant τc, WT CFTR” value is on record as 0.29 ± 0.03 s and the “Open time constant τo, WT CFTR” value is given as 1.48 ± 0.41 s. Further, the “Open probability Po, WT CFTR” value (pre-potentiator Po 0.39 ± 0.04) was 0.78 ± 0.04.
